# Measured values from the METLIN SMRT retention time set (Domingo-Almenara et al. 2019).
# Assay: gradient 5% acetonitrile 3 min, to 50% in 2 min, to 85% in 15 min, held 3 min, 100 µL/min
# Conditions: column: Zorbax Extend-C18 2.1 x 50 mm; eluents: water / acetonitrile, 0.1% formic acid
# Summary of the method: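 The system's dead and dwell volumes were 40 μL and 900 μL, with a Zorbax Extend-C18 column (2.1 × 50 mm, 1.8 μm) run at 100 μL/min in water and acetonitrile containing 0.1% formic acid each. Pure standards were analyzed in mixtures of ~100 molecules by HPLC–quadrupole time-of-flight mass spectrometry in positive and negative ionization mode. Retention time was assigned from computationally picked, manually inspected adduct peaks.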
row,RP-LC retention time [s],SMILES
1,578,O=C(NCc1ccccc1)N1CCN(c2cnn3c(C4CC4)nnc3c2)CC1
2,1020,Cc1ccc(C)c(NC(=O)Cn2cccc2-c2nnc(-c3ccccc3)o2)c1
3,704,CC(O)CNC(=O)C1CCN(c2ccc(Sc3ccc(C(C)C)cc3)nn2)CC1 (stereo not given)
4,593,COc1ccc(NC(=O)NCC23CCCC=C2NC(=O)CC3)cc1 (stereo not given)
5,693,O=C(Cn1cnc2nc(N3CCCC(C(=O)NC4CC4)C3)sc2c1=O)Nc1cc(F)ccc1F (stereo not given)
6,644,COc1ccc(Cl)cc1C(=O)N1CCN(c2cc(C)nc(N3CCOCC3)n2)CC1
7,581,CCCS(=O)(=O)N1CCC(OCCOc2cccnc2)CC1
8,612,O=c1c2ccc(O)cc2oc2cc(O)ccc12
9,620,Cn1c(CN2CCN(C(=O)NC(c3ccccc3)c3ccccc3)CC2)nc2ccccc21
10,649,O=C(CCCS(=O)(=O)c1ccc(F)cc1)Nc1ncnc2sccc12
11,1100,c1ccc(-n2ncc3c(Nc4ccc5c(c4)OCO5)nc(N4CCOCC4)nc32)cc1
12,850,CC(CCc1ccccc1)NC(=O)Cc1csc2nc(-c3ccccc3)cn12 (stereo not given)
13,610,CCN(CC)S(=O)(=O)c1ccc2c(c1)CC(C(=O)NCCN1CCCCC1)N2C(C)=O (stereo not given)
14,770,Cc1ccc(CNC(=O)c2ncn3c2C(=O)N(C2CC2)C(C)(C(=O)NC2CCCC2)C3)cc1 (stereo not given)
15,687,O=C(Cc1ccccc1F)NCCc1nc(-c2ccc3c(c2)OCO3)n[nH]1
16,794,COC(=O)c1c(C)[nH]c(C(=O)N2CCC(CC(=O)NC3CCCCCC3)CC2)c1C
17,807,COc1ccc(CN2N=C(C(=O)N3CCOCC3)S(=O)(=O)c3ccccc32)cc1F
18,643,CCCNC(=O)COc1ccc(NC(=O)C2CC2)cn1
19,819,Cc1ccc(S(=O)(=O)N2CCCC(Cn3c(C4CC4)nc4cccnc43)C2)cc1F (stereo not given)
20,613,O=C(CN1CCN(Cc2ccc(F)cc2)C1=O)N1CCN(C2CCCCC2)CC1
21,636,Cc1occc1C(=O)NC1CCc2nn(CC3CC3)c(=O)n2CC1 (stereo not given)
22,828,CCC(C)CC(=O)N1CCCN(C2=NS(=O)(=O)C(c3ccccc3)=C2C)CC1 (stereo not given)

row,RP-LC retention time [s],SMILES
1,594,CC(C)NC(=O)CN1CCN(c2cc(C(=O)O)c3cc(NC(=O)c4ccccc4F)ccc3n2)CC1
2,563,O=C(c1ccc2nc(N3CCOCC3)sc2c1)N1CCN(c2ccccn2)CC1
3,653,O=C(NCc1cccnc1)C1CCCN(c2ccc(Sc3ccc(Br)cc3)nn2)C1 (stereo not given)
4,652,Cc1c(CCC(=O)N2CCC3(O)CCCCC3C2)c(=O)oc2cc(O)ccc12 (stereo not given)
5,708,Cc1cc(C)cc(S(=O)(=O)N2CCC(CN3CCCCCC3)CC2)c1
6,615,Cc1cc(F)cc2c(=O)c3c([nH]c12)CCN(CC(=O)Nc1ccc2c(c1)OCO2)C3
7,819,COc1ccc(-c2cnc(S(=O)(=O)CC(=O)NCc3ccccc3Cl)n2C)cc1
8,712,COc1ccc(OC)c(C(O)CN2CCN(c3cccc(C)c3)CC2)c1 (stereo not given)
9,956,CC1(C(=O)NC2CCCCCCC2)CN(S(C)(=O)=O)CC(=O)N1Cc1cccc(F)c1 (stereo not given)
10,785,COc1cccc(OC)c1C(=O)Nc1nc(-c2ccc3c(c2)NC(=O)CO3)c(C)s1
11,580,Cc1ccccc1S(=O)(=O)N1CCCC(CCC(=O)NCC2CCCCC2)C1 (stereo not given)
12,831,CCc1ccc(S(=O)(=O)N2CCC3(CC2)NCCN=C3NCc2ccc(F)c(Cl)c2)cc1
13,760,CCc1ccc(N2CC(c3noc(-c4cnccn4)n3)CC2=O)cc1 (stereo not given)
14,921,Cc1nn(-c2cc(N3CCCC3)ncn2)c(C)c1CCC(=O)NCc1ccc2c(c1)OCO2
15,596,CCC1CCCCN1CCCNC(=O)CCc1cc2cc(OC)ccc2[nH]c1=O (stereo not given)
16,671,CN(CC1CCOC1)C(=O)Nc1ccc(F)cc1 (stereo not given)
17,830,O=C(CCCc1c[nH]c2ccccc12)NCCc1c[nH]c2ccccc12
18,983,COc1ccc(-c2nc(-c3cn(Cc4cccc(F)c4)nn3)no2)cc1
19,900,Cc1ccccc1S(=O)(=O)N1CCC(c2noc(-c3ccccn3)n2)C1 (stereo not given)
20,793,O=C(NCc1ccco1)c1ccc(-n2nnc3cccnc32)cc1Cl
21,595,CN1CCN(CCCNC(=O)CCCN2C(=O)C(c3ccccc3)Oc3cccnc32)CC1 (stereo not given)
22,563,CN(C)CCNC(=O)c1cc(S(=O)(=O)N2CCOCC2)ccc1Cl

row,RP-LC retention time [s],SMILES
1,719,O=C(O)c1ccc(NC(=O)c2ccc([N+](=O)[O-])cc2Cl)cc1
2,747,COc1cccc(CNC2=NCCNC23CCN(S(=O)(=O)c2ccc(C)cc2C)CC3)c1
3,892,O=C(c1ccoc1)N1CCCC(c2ccnc(-c3ccccc3)n2)C1 (stereo not given)
4,720,O=C(Nc1ccc2nc3n(c(=O)c2c1)CCCC3)c1cc2ccccc2[nH]1
5,946,CC(C)n1cc(S(=O)(=O)Nc2cccc(Cl)c2)c2cccnc21
6,638,COc1ccccc1-c1cnn2c(N3CCN(c4cccc(C)n4)CC3)cc(C)nc12
7,750,COC(=O)c1ncn2c1C(=O)N(c1ccc(C)c(C)c1)C(C)(C(=O)NC1CCCC1)C2 (stereo not given)
8,666,O=C(Nc1cccc(-c2cn3cccnc3n2)c1)c1ccccc1Cl
9,844,CCCn1cc(S(=O)(=O)Nc2ccc(C#N)cc2)c2cccnc21
10,813,CCC(=O)Nc1ccc(CCc2nc3ccc(C(=O)NC(C)C)cc3[nH]2)cc1
11,921,CCCc1noc(-c2ccc3nnc(CC(=O)Nc4ccc(F)c(C)c4)n3c2)n1
12,664,COc1ccc2nc([S@](=O)Cc3ncc(C)c(OC)c3C)[nH]c2c1
13,724,COc1cccc(CN2C[C@@H]3C(=O)N(Cc4ccc5c(c4)OCO5)C(=O)[C@@H]3C2)c1
14,1340,COc1ccc(N2CCN(S(=O)(=O)c3cc(-c4nc(C(C)C)cs4)sc3C)CC2)cc1
15,1030,O=C(NCc1nc(-c2cccc(-c3csc(C4CC4)n3)c2)no1)c1ccccc1
16,1160,CCCCOc1ccc(C(=O)NC2(c3nc(CC)no3)CCCCC2)cc1
17,625,O=C(CCc1nnn2c1CN(C(=O)c1nccc3ccccc13)CC2)N1CCCC1
18,629,COc1ccc(CN2CC(C(=O)N3CCCN(c4cc(=O)n(C)c(=O)n4C)CC3)CC2=O)cc1 (stereo not given)
19,863,Cc1ccn2c(NC(=O)c3cccc([N+](=O)[O-])c3)c(-c3ccc(F)cc3)nc2c1
20,630,CCOC(=O)CNC(=O)N1CCC2(CC1)NC(=O)c1ccccc1O2

row,SMILES,RP-LC retention time [s]
1,CN1CC[C@@]2(C)c3cc(OC(=O)Nc4ccccc4)ccc3N(C)[C@@H]12,718
